Assay results published in US11072612B2, “NLRP3 modulators” (INNATE TUMOR IMMUNITY, INC., priority 2016, dated 2021).

Experiments:
Type in all cases: cell-based
hNLRP3 = target: T1, hNLRP3 (Homo sapiens, UniProt Q96P20); test: hNLRP3 agonist assay: IL-1β production in PMA-differentiated THP-1 cells (ELISA); conditions: Table 2, 4 hours, IL-1β by ELISA
T1 construct: THP-1 cells were purchased from the American Type Culture Collection; host or cells: THP-1 cells, PMA-differentiated

TLR7 = target: T2, TLR7 (Homo sapiens, UniProt Q9NYK1); test: TLR7 EC50 assay; conditions: Table 2
T2 sequence (Q9NYK1 27-1049): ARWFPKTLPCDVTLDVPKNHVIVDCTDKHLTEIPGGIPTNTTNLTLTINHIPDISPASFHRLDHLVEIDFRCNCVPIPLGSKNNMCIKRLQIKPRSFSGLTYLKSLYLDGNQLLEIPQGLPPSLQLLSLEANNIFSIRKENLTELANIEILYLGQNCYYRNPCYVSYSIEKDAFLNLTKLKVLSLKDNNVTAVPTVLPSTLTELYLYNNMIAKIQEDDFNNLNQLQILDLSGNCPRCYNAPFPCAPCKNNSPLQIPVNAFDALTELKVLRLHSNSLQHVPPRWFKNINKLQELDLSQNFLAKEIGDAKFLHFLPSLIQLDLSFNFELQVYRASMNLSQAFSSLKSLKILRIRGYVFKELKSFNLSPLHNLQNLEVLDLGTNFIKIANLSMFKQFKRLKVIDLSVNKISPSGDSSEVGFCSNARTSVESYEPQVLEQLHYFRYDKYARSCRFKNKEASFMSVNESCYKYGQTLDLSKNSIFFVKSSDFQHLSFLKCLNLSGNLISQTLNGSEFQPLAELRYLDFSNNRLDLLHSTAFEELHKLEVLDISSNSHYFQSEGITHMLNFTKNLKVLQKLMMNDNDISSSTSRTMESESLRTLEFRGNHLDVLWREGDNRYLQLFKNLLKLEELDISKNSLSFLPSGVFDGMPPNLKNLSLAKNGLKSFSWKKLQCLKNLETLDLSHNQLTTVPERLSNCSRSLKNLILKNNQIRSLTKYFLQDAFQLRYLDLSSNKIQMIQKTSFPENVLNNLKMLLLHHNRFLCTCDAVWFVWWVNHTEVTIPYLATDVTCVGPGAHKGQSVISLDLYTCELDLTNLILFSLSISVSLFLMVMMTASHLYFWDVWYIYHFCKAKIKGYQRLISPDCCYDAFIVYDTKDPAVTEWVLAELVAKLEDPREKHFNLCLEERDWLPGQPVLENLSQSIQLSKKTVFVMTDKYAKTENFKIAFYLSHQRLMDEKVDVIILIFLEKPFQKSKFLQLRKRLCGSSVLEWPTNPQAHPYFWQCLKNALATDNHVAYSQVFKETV

TLR8 = target: T3, TLR8 (Homo sapiens, UniProt Q9NR97); test: TLR8 EC50 assay; conditions: Table 2
T3 sequence (Q9NR97 27-1041): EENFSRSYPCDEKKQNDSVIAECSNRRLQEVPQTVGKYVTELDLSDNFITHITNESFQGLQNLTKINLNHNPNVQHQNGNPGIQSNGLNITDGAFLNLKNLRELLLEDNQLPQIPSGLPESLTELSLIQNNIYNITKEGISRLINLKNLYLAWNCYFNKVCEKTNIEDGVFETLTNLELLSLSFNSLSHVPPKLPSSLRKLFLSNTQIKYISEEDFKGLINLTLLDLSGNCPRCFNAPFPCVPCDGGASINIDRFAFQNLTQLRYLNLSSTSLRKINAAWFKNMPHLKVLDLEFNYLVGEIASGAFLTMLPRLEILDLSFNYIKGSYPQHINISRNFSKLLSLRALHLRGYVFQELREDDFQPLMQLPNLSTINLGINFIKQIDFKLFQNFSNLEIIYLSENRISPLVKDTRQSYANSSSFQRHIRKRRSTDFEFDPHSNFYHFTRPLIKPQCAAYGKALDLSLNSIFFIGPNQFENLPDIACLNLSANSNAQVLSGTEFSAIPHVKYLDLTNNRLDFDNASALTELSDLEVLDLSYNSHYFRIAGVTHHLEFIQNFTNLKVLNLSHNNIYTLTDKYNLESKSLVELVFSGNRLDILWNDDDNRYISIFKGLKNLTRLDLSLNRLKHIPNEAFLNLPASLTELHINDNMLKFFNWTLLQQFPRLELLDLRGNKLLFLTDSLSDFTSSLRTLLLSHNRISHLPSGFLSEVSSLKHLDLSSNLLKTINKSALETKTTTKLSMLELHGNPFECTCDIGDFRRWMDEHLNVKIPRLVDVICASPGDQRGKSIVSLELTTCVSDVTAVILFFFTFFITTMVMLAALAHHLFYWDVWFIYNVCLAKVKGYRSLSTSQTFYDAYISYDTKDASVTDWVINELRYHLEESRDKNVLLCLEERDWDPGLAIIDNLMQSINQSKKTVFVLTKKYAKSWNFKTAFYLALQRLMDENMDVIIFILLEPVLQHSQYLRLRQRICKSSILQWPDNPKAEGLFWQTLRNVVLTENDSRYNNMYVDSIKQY

T1 sequence (Q96P20 whole entry): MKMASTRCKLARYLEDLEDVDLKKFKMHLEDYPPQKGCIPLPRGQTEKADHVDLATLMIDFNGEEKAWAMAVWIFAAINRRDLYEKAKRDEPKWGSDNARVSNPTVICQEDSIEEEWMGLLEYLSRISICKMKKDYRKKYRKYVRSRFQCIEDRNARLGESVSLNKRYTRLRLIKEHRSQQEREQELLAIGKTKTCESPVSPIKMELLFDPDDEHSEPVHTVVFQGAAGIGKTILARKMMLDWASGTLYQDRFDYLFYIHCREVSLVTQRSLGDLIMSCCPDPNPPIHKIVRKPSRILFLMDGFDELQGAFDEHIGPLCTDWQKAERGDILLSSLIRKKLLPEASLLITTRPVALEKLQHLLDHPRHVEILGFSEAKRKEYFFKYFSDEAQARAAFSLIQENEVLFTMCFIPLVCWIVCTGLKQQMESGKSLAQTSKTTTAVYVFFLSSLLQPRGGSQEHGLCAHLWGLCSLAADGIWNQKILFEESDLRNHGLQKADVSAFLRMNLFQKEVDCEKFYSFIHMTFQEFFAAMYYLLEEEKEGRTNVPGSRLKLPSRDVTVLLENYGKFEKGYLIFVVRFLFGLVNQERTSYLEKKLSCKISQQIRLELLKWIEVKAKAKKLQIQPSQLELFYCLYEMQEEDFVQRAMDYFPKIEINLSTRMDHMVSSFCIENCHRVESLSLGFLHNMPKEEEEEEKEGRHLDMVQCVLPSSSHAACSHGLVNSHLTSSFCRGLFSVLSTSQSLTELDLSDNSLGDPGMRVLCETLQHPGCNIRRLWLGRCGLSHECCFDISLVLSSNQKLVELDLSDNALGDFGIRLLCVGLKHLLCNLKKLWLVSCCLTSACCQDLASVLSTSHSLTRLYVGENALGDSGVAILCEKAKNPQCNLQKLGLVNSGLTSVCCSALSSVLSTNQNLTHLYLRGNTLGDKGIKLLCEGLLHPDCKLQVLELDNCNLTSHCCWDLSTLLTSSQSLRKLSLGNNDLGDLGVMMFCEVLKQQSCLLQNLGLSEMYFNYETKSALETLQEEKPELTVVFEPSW

`Cn1nccc1-c1ccc2c(c1)nc(N)c1nc(CCCO)[nH]c12` [Compound 190, 3-[4-amino-7-(2-methylpyrazol-3-yl)-1H-imidazo[4,5-c]quinolin-2-yl]propan-1-ol] was tested, and the EC50 (hNLRP3) was 20 to 100 µM, the EC50 (TLR7) was > 100 µM and the EC50 (TLR8) was > 100 µM.
With `Nc1nc2cc(-c3cnc4ccccc4c3)ccc2c2[nH]c(CCCO)nc12` [Compound 191, 3-(4-amino-7-quinolin-3-yl-1H-imidazo[4,5-c]quinolin-2-yl)propan-1-ol] the EC50 (hNLRP3) was > 100 µM, the EC50 (TLR7) was > 100 µM and the EC50 (TLR8) was > 100 µM.
In the case of `Nc1nc2cc(-c3cncc4ccccc34)ccc2c2[nH]c(CCCO)nc12` [Compound 192, 3-(4-amino-7-isoquinolin-4-yl-1H-imidazo[4,5-c]quinolin-2-yl)propan-1-ol], the EC50 (hNLRP3) is reported as > 100 µM, the EC50 (TLR7) is reported as > 100 µM and the EC50 (TLR8) is reported as > 100 µM.
`Cn1cc(-c2ccc3c(c2)nc(N)c2nc(CCCO)[nH]c23)cn1` [Compound 193, 3-[4-amino-7-(1-methylpyrazol-4-yl)-1H-imidazo[4,5-c]quinolin-2-yl]propan-1-ol] was tested, and the EC50 (hNLRP3) was 20 to 100 µM, the EC50 (TLR7) was > 100 µM and the EC50 (TLR8) was > 100 µM.
In the case of `Cc1cc(C)n(-c2ccc3c(c2)nc(N)c2nc(CCCO)[nH]c23)n1` [Compound 194, 3-[4-amino-7-(3,5-dimethylpyrazol-1-yl)-1H-imidazo[4,5-c]quinolin-2-yl]propan-1-ol], the EC50 (hNLRP3) is reported as 20 to 100 µM, the EC50 (TLR7) is reported as 20 to 100 µM and the EC50 (TLR8) is reported as > 100 µM.
With `Nc1nc2cc(-c3cnoc3)ccc2c2[nH]c(CCCO)nc12` [Compound 195, 3-[4-amino-7-(1,2-oxazol-4-yl)-1H-imidazo[4,5-c]quinolin-2-yl]propan-1-ol] the EC50 (hNLRP3) was > 100 µM, the EC50 (TLR7) was > 100 µM and the EC50 (TLR8) was > 100 µM.
`Nc1nc2cc(C3CCOCC3)ccc2c2[nH]c(CCCO)nc12` [Compound 196, 3-[4-amino-7-(oxan-4-yl)-1H-imidazo[4,5-c]quinolin-2-yl]propan-1-ol] was tested, and the EC50 (hNLRP3) was > 100 µM, the EC50 (TLR7) was > 100 µM and the EC50 (TLR8) was > 100 µM.
`Cc1ccccc1-c1ccc2c(c1)nc(N)c1nc(CCCO)[nH]c12` [Compound 199, 3-[4-amino-7-(2-methylphenyl)-1H-imidazo[4,5-c]quinolin-2-yl]propan-1-ol] was tested, and the EC50 (hNLRP3) was > 100 µM, the EC50 (TLR7) was > 100 µM and the EC50 (TLR8) was > 100 µM.
With `Nc1nc2cc(-c3ccccc3Cl)ccc2c2[nH]c(CCCO)nc12` [Compound 200, 3-[4-amino-7-(2-chlorophenyl)-1H-imidazo[4,5-c]quinolin-2-yl]propan-1-ol] the EC50 (hNLRP3) was > 100 µM, the EC50 (TLR7) was > 100 µM and the EC50 (TLR8) was > 100 µM.
`COc1ccccc1-c1ccc2c(c1)nc(N)c1nc(CCCO)[nH]c12` [Compound 201, 3-[4-amino-7-(2-methoxyphenyl)-1H-imidazo[4,5-c]quinolin-2-yl]propan-1-ol] was tested, and the EC50 (hNLRP3) was > 100 µM, the EC50 (TLR7) was > 100 µM and the EC50 (TLR8) was > 100 µM.
With `N#Cc1ccccc1-c1ccc2c(c1)nc(N)c1nc(CCCO)[nH]c12` [Compound 202, 2-[4-amino-2-(3-hydroxypropyl)-1H-imidazo[4,5-c]quinolin-7-yl]benzonitrile] the EC50 (hNLRP3) was > 100 µM, the EC50 (TLR7) was > 100 µM and the EC50 (TLR8) was > 100 µM.
With `Nc1nc2cc(-c3ccccc3F)ccc2c2[nH]c(CCCO)nc12` [Compound 203, 3-[4-amino-7-(2-fluorophenyl)-1H-imidazo[4,5-c]quinolin-2-yl]propan-1-ol] the EC50 (hNLRP3) was > 100 µM, the EC50 (TLR7) was > 100 µM and the EC50 (TLR8) was > 100 µM.
In the case of `Nc1nc2cc(-c3cccc(Cl)c3)ccc2c2[nH]c(CCCO)nc12` [Compound 204, 3-[4-amino-7-(3-chlorophenyl)-1H-imidazo[4,5-c]quinolin-2-yl]propan-1-ol], the EC50 (hNLRP3) is reported as > 100 µM, the EC50 (TLR7) is reported as > 100 µM and the EC50 (TLR8) is reported as > 100 µM.
For `Cc1cccc(-c2ccc3c(c2)nc(N)c2nc(CCCO)[nH]c23)c1` [Compound 205, 3-[4-amino-7-(3-methylphenyl)-1H-imidazo[4,5-c]quinolin-2-yl]propan-1-ol], the EC50 (hNLRP3) was 20 to 100 µM, the EC50 (TLR7) was > 100 µM and the EC50 (TLR8) was > 100 µM.
For `COc1cccc(-c2ccc3c(c2)nc(N)c2nc(CCCO)[nH]c23)c1` [Compound 206, 3-[4-amino-7-(3-methoxyphenyl)-1H-imidazo[4,5-c]quinolin-2-yl]propan-1-ol], the EC50 (hNLRP3) was > 100 µM, the EC50 (TLR7) was > 100 µM and the EC50 (TLR8) was > 100 µM.
For `N#Cc1cccc(-c2ccc3c(c2)nc(N)c2nc(CCCO)[nH]c23)c1` [Compound 207, 3-[4-amino-2-(3-hydroxypropyl)-1H-imidazo[4,5-c]quinolin-7-yl]benzonitrile], the EC50 (hNLRP3) was > 100 µM, the EC50 (TLR7) was > 100 µM and the EC50 (TLR8) was > 100 µM.
With `Nc1nc2cc(-c3cccc(F)c3)ccc2c2[nH]c(CCCO)nc12` [Compound 208, 3-[4-amino-7-(3-fluorophenyl)-1H-imidazo[4,5-c]quinolin-2-yl]propan-1-ol] the EC50 (hNLRP3) was > 100 µM, the EC50 (TLR7) was > 100 µM and the EC50 (TLR8) was > 100 µM.
For `Nc1nc2cc(-c3ccc(Cl)cc3)ccc2c2[nH]c(CCCO)nc12` [Compound 209, 3-[4-amino-7-(4-chlorophenyl)-1H-imidazo[4,5-c]quinolin-2-yl]propan-1-ol], the EC50 (hNLRP3) was > 100 µM, the EC50 (TLR7) was > 100 µM and the EC50 (TLR8) was > 100 µM.
In the case of `Cc1ccc(-c2ccc3c(c2)nc(N)c2nc(CCCO)[nH]c23)cc1` [Compound 210, 3-[4-amino-7-(4-methylphenyl)-1H-imidazo[4,5-c]quinolin-2-yl]propan-1-ol], the EC50 (hNLRP3) is reported as > 100 µM, the EC50 (TLR7) is reported as > 100 µM and the EC50 (TLR8) is reported as > 100 µM.
In the case of `COc1ccc(-c2ccc3c(c2)nc(N)c2nc(CCCO)[nH]c23)cc1` [Compound 211, 3-[4-amino-7-(4-methoxyphenyl)-1H-imidazo[4,5-c]quinolin-2-yl]propan-1-ol], the EC50 (hNLRP3) is reported as > 100 µM, the EC50 (TLR7) is reported as > 100 µM and the EC50 (TLR8) is reported as > 100 µM.
With `Nc1nc2cc(-c3ccc(F)cc3)ccc2c2[nH]c(CCCO)nc12` [Compound 212, 3-[4-amino-7-(4-fluorophenyl)-1H-imidazo[4,5-c]quinolin-2-yl]propan-1-ol] the EC50 (hNLRP3) was > 100 µM, the EC50 (TLR7) was > 100 µM and the EC50 (TLR8) was 20 to 100 µM.
With `Cc1ccncc1-c1ccc2c(c1)nc(N)c1nc(CCCO)[nH]c12` [Compound 213, 3-[4-amino-7-(4-methylpyridin-3-yl)-1H-imidazo[4,5-c]quinolin-2-yl]propan-1-ol] the EC50 (hNLRP3) was > 100 µM, the EC50 (TLR7) was 1 to 20 µM and the EC50 (TLR8) was > 100 µM.
`Cc1ncccc1-c1ccc2c(c1)nc(N)c1nc(CCCO)[nH]c12` [Compound 214, 3-[4-amino-7-(2-methylpyridin-3-yl)-1H-imidazo[4,5-c]quinolin-2-yl]propan-1-ol] was tested, and the EC50 (hNLRP3) was > 100 µM, the EC50 (TLR7) was 20 to 100 µM and the EC50 (TLR8) was > 100 µM.
With `Nc1nc2cc(-c3cccnc3Cl)ccc2c2[nH]c(CCCO)nc12` [Compound 215, 3-[4-amino-7-(2-chloropyridin-3-yl)-1H-imidazo[4,5-c]quinolin-2-yl]propan-1-ol] the EC50 (hNLRP3) was > 100 µM, the EC50 (TLR7) was 20 to 100 µM and the EC50 (TLR8) was 20 to 100 µM.
In the case of `CC(C)(C)OC(=O)N1CCC(c2nc3c(N)nc4cc(-n5cccn5)ccc4c3[nH]2)CC1` [Compound 218], the EC50 (hNLRP3) is reported as ≤ 1 µM, the EC50 (TLR7) is reported as > 100 µM and the EC50 (TLR8) is reported as > 100 µM.
